The record followed here is patent US20250059232A1, “PENTAPEPTIDE AND USE THEREOF” (ENSOL BIOSCIENCES INC., priority 2021, published 2025).

Data set [1] concerns 4T1 cells. The experiment in a line: Syngeneic model implanted with paclitaxel-resistant 4T1 cells: tumor volume, Western blot of cleaved PARP and LC3II. The data set is classed as in vivo, mouse. The following applies: paclitaxel only. As for the experimental part:
Cell death and autophagy marker changes were determined by the Western blot method, using a syngeneic model implanted with 4T1 cells (American Type Culture Collection (ATCC)), which are mouse triple negative breast cancer tumor cells resistant to paclitaxel. The drug administration was started, when the tumor volume was reached to 70 mm^3 after a fat pad of Balb/c mice (6 weeks old, female) was transplanted with 4T1 cells in a concentration of 1×10^6 cells/head. For Week 1, paclitaxel 20 mg/kg was administered on Day 1 and Day 2, and the peptide (10, 100 mg/kg) of Example 1 was co-administered on Day 3, Day 5, and Day 7. In addition, the same process was performed for each of Week 2, and Week 3 (n=3). The tumor volumes were measured daily because the tumors grew very quickly. The changes in cleaved PARP, which is a cell death marker, and the changes in LC3II, which is an autophagy marker, in tumors were analyzed after necropsy on the day after the end of the 3-week administration, by a Western blot test.
FIG. 5 is a graph illustrating the results of tumor volume measurements according to the number of days after treatment in animal experimentation. In FIG. 5, the x-axis represents the number of days elapsed after treatment and the y-axis represents the tumor volume change (mm^3).
In addition, the changes in cleaved PARP, which is a cell death marker, are shown in FIG. 6, and the changes in LC3II, which is an autophagy marker, are shown in FIG. 7. FIG. 6 is a graph showing the changes in expression of cleaved PARP, which is a cell death marker, for each treatment group in animal experimentation, and FIG. 7 is a graph showing the changes in expression of LC3II, which is an autophagy marker, for each treatment group in animal experimentation.

Data set [2] deals with MDA-MB-231. Description: MDA-MB-231 fat pad xenograft in athymic nude mouse: tumor volume and weight. Conditions: paclitaxel only. The class given is in vivo, human. As to the method: 5×10^6 cells/head of the human triple negative breast cancer cell line MDA-MB-231 (American Type Culture Collection (ATCC)) were mixed with Matrigel and PBS (1:1). 100 ul of the mixture was injected into the right third fat pad of 7-week-old female athymic nude mouse. After the transplantation, drug administration started from an average tumor size of 80 mm^3. Paclitaxel 20 mg/kg was administered on Day 0 and on Day 1. That is, the paclitaxel 20 mg/kg was administered a total of two times. Then, the peptide of Example 1 was administered in a dose of 100 mg/kg on Day 2, Day 4, and Day 6. That is, the peptide of Example 1 was administered a total of three times. Tumor volumes were measured 3 times a week for 3 weeks after administration of the first dose. Tumor weights were measured by necropsy after the end of the experiment. For each group, ten mice were used.
Tumor volume changes over time for each group are shown in FIG. 8, and tumor weight on the eighteenth day after the administration of the first dose for each group is shown in FIG. 9. FIG. 8 is a graph illustrating the changes in tumor volume over time after sample administration in animal experimentation. In FIG. 8, the x-axis represents the number of days elapsed after the start of administration and the y-axis represents the tumor volume change (mm^3). FIG. 9 is a graph illustrating a tumor weight for each test group in animal experimentation. In FIG. 9, the x-axis represents test groups and the y-axis represents tumor weights (mg).

Data set [3] has as its system MDA-MB-231. The experiment in a line: MDA-MB-231 xenograft in BalB/c nude mouse: survival rate. Conditions: paclitaxel only. The class given is in vivo. As for the experimental part: To investigate survival rates of the paclitaxel-only administration group and the group co-administered with paclitaxel and the peptide of Example 1, experiments described below were performed. 5×10^6 cells/head of the human triple negative breast cancer cell line MDA-MB-231 were mixed with Matrigel and PBS (1:1). 100 ul of the mixture was injected into the right third fat pad of 7-week-old female BalB/c nude mouse. After the transplantation, drug administration started from an average tumor size of 70 mm^3. Paclitaxel 20 mg/kg was administered once weekly, and the peptide 100 mg/kg of Example 1 was administered subcutaneously 3 times weekly at 48-hour intervals, 48 hours after the paclitaxel administration. Each test group was administered for 12 weeks and animal survival was observed daily. FIG. 10 is a graph illustrating survival rates over time after sample administration in animal experimentation. In FIG. 10, the x-axis represents the elapsed time (days) after administration and the y-axis represents survival rates (%). […] In the case of the group co-administered with the peptide of Example 1, the first deceased mouse occurred on Day 60 of administration.

Data set [4] in a line: Stability test: HPLC relative purity of peptide dissolved in buffer, by pH and temperature. The class given is physicochemical. As to the method: For Example 1 and Comparative Example 1, stability tests according to pH for each temperature were performed.
Stability tests for each peptide were performed by liquid chromatography purity analysis for each temperature and each pH according to analysis timing (initial, 24 hours, 130 hours). […] Samples were analyzed by injecting 20 ul of each sample with an auto-sample injector, and the analysis column was Inspire C18 (4.6×250 mm, […], 12 nm) manufactured by Dikma. The analysis temperature was 40° C., and a UV wavelength of 215 nm was used.
On the basis of the HPLC analysis results, relative purity was calculated for Comparative Example 1 and Example 1 for each storage condition. The relative purity is the percentage of measured purity changing according to the storage period, with the initial purity being set to 100% for each sample. FIGS. 1 and 2 are graphs showing the results of stability tests for Example and Comparative Example stored at a temperature of 25° C., in which FIG. 1 is a graph of a test result for 24 hours of storage, and FIG. 2 is a graph of a test result for 130 hours of storage. FIGS. 3 and 4 are graphs showing the results of stability tests for Example and Comparative Example stored at 40° C., in which FIG. 3 is a graph of a test result for 24 hours of storage, and FIG. 4 is a graph of a test result for 130 hours of storage. In each graph, the x-axis represents the test group by pH and the y-axis represents the relative purity […].

The mark [5] stands for this setting: eighteenth day after first dose.

Consider `CC(=O)O[C@H]1C(=O)[C@@]2(C)[C@H]([C@H](OC(=O)c3ccccc3)[C@]3(O)C[C@H](OC(=O)[C@H](O)[C@@H](NC(=O)c4ccccc4)c4ccccc4)C(C)=C1C3(C)C)[C@]1(OC(C)=O)CO[C@@H]1C[C@@H]2O` [paclitaxel, reference compound], for which the “Reduction in tumor volume compared to the control group” value in data set [1] (20 mg/kg, Balb/c mice) is recorded as “insignificant reduction in tumor volume”. Moreover, the “Increase in LC3II expression level in tumor compared to control group” value in data set [1] (Western blot after 3-week administration) worked out at 2.4 fold. Besides, the “CR (mice in which the tumor disappeared)” value in data set [2] (20 mg/kg Day 0 and Day 1, ten mice) is recorded as 10%. In data set [2] (setting [5]), the “Reduction in tumor volume compared to control group” value is on record as 33% and the “Reduction in tumor weight compared to control group” value was 34.5%. Besides, in data set [2] (one mouse), the “Day on which the tumor disappeared” value was determined as 16 days. Moreover, in data set [3] (20 mg/kg once weekly), the “Day of administration on which the first deceased mouse occurred” value is 21 days. Moreover, the “Survival rate after the end of the experiment” value in data set [3] (12 weeks) came to 30%.

“QLHLD [Comparative Example 1, reference compound]”: the “Stability (summary in words)” value in data set [4] (liquid state, pH 2-9, 25 and 40° C., up to 130 hours) is given as “in some cases, the samples were not stable”. Also, the Relative purity worked out at 100.0% in data set [4] (pH 2, 25 ± 2° C., RH 60 ± 5%, storage 0 hours (initial set to 100%)); 79.0% in data set [4] (pH 2, 25 ± 2° C., RH 60 ± 5%, storage 24 hours); 25.0% in data set [4] (pH 2, 25 ± 2° C., RH 60 ± 5%, storage 130 hours); 100.0% in data set [4] (pH 2, 40 ± 2° C., RH 75 ± 5%, storage 0 hours (initial set to 100%)); 27.6% in data set [4] (pH 2, 40 ± 2° C., RH 75 ± 5%, storage 24 hours); 0.3% in data set [4] (pH 2, 40 ± 2° C., RH 75 ± 5%, storage 130 hours). In addition, the Relative purity in data set [4] (pH 5, 25 ± 2° C., RH 60 ± 5%, storage 0 hours (initial set to 100%)) was found to be 100.0%; in data set [4] (pH 5, 25 ± 2° C., RH 60 ± 5%, storage 24 hours), 77.9%; in data set [4] (pH 5, 25 ± 2° C., RH 60 ± 5%, storage 130 hours), 21.7%; in data set [4] (pH 5, 40 ± 2° C., RH 75 ± 5%, storage 0 hours (initial set to 100%)) it was 100.0%; in data set [4] (pH 5, 40 ± 2° C., RH 75 ± 5%, storage 24 hours), 21.8%; in data set [4] (pH 5, 40 ± 2° C., RH 75 ± 5%, storage 130 hours), 0.1%. Besides, the Relative purity in data set [4] (pH 7, 25 ± 2° C., RH 60 ± 5%, storage 0 hours (initial set to 100%)) turned out to be 100.0%; in data set [4] (pH 7, 25 ± 2° C., RH 60 ± 5%, storage 24 hours) it was 28.5%; in data set [4] (pH 7, 25 ± 2° C., RH 60 ± 5%, storage 130 hours), 0.1%; in data set [4] (pH 7, 40 ± 2° C., RH 75 ± 5%, storage 0 hours (initial set to 100%)) it was 100.0%; in data set [4] (pH 7, 40 ± 2° C., RH 75 ± 5%, storage 24 hours), 0.2%; in data set [4] (pH 7, 40 ± 2° C., RH 75 ± 5%, storage 130 hours), 0.0%. In addition, the Relative purity in data set [4] (pH 9, 25 ± 2° C., RH 60 ± 5%, storage 0 hours (initial set to 100%)) is 100.0%; in data set [4] (pH 9, 25 ± 2° C., RH 60 ± 5%, storage 24 hours), 50.2%; in data set [4] (pH 9, 25 ± 2° C., RH 60 ± 5%, storage 130 hours), 2.4%; in data set [4] (pH 9, 40 ± 2° C., RH 75 ± 5%, storage 0 hours (initial set to 100%)), 100.0%; in data set [4] (pH 9, 40 ± 2° C., RH 75 ± 5%, storage 24 hours) it was 8.5%; in data set [4] (pH 9, 40 ± 2° C., RH 75 ± 5%, storage 130 hours), 0.0%.
